The source made the active and inactive calls. How the calls were made is not given here. A value given as a limit tells only on which side of the number the result lay.

For this assay, the target named is Cathepsin S (Homo sapiens) (UniProt P25774). Briefly: IC50 of CTSS protease blockers – biochemical, confirmation, dose response (AID 831). As to conditions: purified cathepsin S enzyme activity, fluorescence.
Cathepsin S (Homo sapiens), sequence (P25774 115-331 limits assumed): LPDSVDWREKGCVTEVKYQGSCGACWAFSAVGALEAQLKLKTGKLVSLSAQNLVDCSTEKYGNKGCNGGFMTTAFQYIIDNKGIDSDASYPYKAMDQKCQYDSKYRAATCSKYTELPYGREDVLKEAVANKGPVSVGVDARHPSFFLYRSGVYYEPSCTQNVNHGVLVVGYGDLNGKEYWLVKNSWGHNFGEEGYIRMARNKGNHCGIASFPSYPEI
Regarding `CC1=C(C(=O)Nc2ccc(F)cc2)C(c2cccc(C)c2)n2nc(CCCO)nc2N1` (centres undefined), the IC50 is > 50 µM (inactive). In the case of `N#CC1=C(N)Oc2c(sc3ccccc23)C1c1ccco1` (centres undefined), the IC50 was > 50 µM (inactive). Next, `CC(=O)c1c(O)n(C)c(=S)n(-c2ccccc2)c1=O`: > 50 µM (inactive); `CCN1CC=C2C(C#N)=C(N)C(C#N)(C#N)C(CCc3ccccc3)C2C1` (centres undefined): 6.55 µM.

Values taken from PubChem BioAssay AID831 (PCMD, 2007).
